Reference: PubChem BioAssay (NCI)
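Protocol summary: plate cells (96-well), add compound at 5 concentrations, incubate 48 h, interpolate endpoints linearly. Here, GI50 denotes the concentration required for 50% inhibition of growth. TGI: total growth inhibition.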

Key:
Experiment in all cases: DTP human tumour cell line panel, 48 h
CAKI-1 renal = system: CAKI-1 renal
UO-31 renal = system: UO-31 renal
ACHN renal = system: ACHN renal
UACC-257 melanoma = system: UACC-257 melanoma
SN12C renal = system: SN12C renal
UACC-62 melanoma = system: UACC-62 melanoma
OVCAR-3 ovarian = system: OVCAR-3 ovarian
A549 NSCLC = system: A549 NSCLC
HOP-62 NSCLC = system: HOP-62 NSCLC
SNB-75 CNS = system: SNB-75 CNS
HT29 colon = system: HT29 colon
MDA-MB-435 = system: MDA-MB-435
HS 578T breast = system: HS 578T breast
K-562 leukemia = system: K-562 leukemia
MOLT-4 leukemia = system: MOLT-4 leukemia
OVCAR-5 ovarian = system: OVCAR-5 ovarian
SF-268 CNS = system: SF-268 CNS
SF-295 CNS = system: SF-295 CNS
NCI/ADR-RES ovarian = system: NCI/ADR-RES ovarian
SF-539 CNS = system: SF-539 CNS
SW-620 colon = system: SW-620 colon
NCI-H226 lung = system: NCI-H226 lung
KM12 colon = system: KM12 colon
NCI-H23 lung = system: NCI-H23 lung
SK-MEL-5 melanoma = system: SK-MEL-5 melanoma
T-47D breast = system: T-47D breast
HL-60(TB) leukemia = system: HL-60(TB) leukemia
MALME-3M melanoma = system: MALME-3M melanoma
OVCAR-8 ovarian = system: OVCAR-8 ovarian
SR leukemia = system: SR leukemia
EKVX NSCLC = system: EKVX NSCLC
COLO 205 colon = system: COLO 205 colon
OVCAR-4 ovarian = system: OVCAR-4 ovarian
HOP-92 NSCLC = system: HOP-92 NSCLC
MDA-MB-231 breast = system: MDA-MB-231 breast
SK-MEL-2 melanoma = system: SK-MEL-2 melanoma
HCT-15 colon = system: HCT-15 colon
SK-OV-3 ovarian = system: SK-OV-3 ovarian
TK-10 renal = system: TK-10 renal
U251 CNS = system: U251 CNS
NCI-H522 lung = system: NCI-H522 lung
A498 renal = system: A498 renal
MCF7 breast = system: MCF7 breast
NCI-H460 lung = system: NCI-H460 lung
PC-3 prostate = system: PC-3 prostate
SNB-19 CNS = system: SNB-19 CNS
CCRF-CEM leukemia = system: CCRF-CEM leukemia
DU-145 prostate = system: DU-145 prostate
RPMI-8226 leukemia = system: RPMI-8226 leukemia
SK-MEL-28 melanoma = system: SK-MEL-28 melanoma
RXF 393 renal = system: RXF 393 renal
HCT-116 colon = system: HCT-116 colon
LOX IMVI melanoma = system: LOX IMVI melanoma
M14 melanoma = system: M14 melanoma
IGROV1 ovarian = system: IGROV1 ovarian
786-0 renal = system: 786-0 renal

**Q.** Which results are given for `COc1ccc(/C=C/C(=O)c2ccc(-n3cc(CN4CCN(c5cc6c(cc5F)c(=O)c(C(=O)O)cn6C5CC5)CC4)nn3)cc2)cc1OC`?
**A.** GI50 (CAKI-1 renal): 5.1 µM; TGI (CAKI-1 renal): 19 µM; GI50 (UO-31 renal): 1.73 µM; TGI (UO-31 renal): 9.01 µM; GI50 (ACHN renal): 3.5 µM; TGI (ACHN renal): 45.2 µM; GI50 (UACC-257 melanoma): 6.34 µM; TGI (UACC-257 melanoma): > 100 µM; GI50 (SN12C renal): 2.66 µM; TGI (SN12C renal): 10 µM; GI50 (UACC-62 melanoma): 2.83 µM; TGI (UACC-62 melanoma): 8.84 µM; GI50 (OVCAR-3 ovarian): 1.84 µM; TGI (OVCAR-3 ovarian): 4.93 µM; GI50 (A549 NSCLC): 2.98 µM; TGI (A549 NSCLC): > 100 µM; GI50 (HOP-62 NSCLC): 2.49 µM; TGI (HOP-62 NSCLC): > 100 µM; GI50 (SNB-75 CNS): 1.49 µM; TGI (SNB-75 CNS): 4.29 µM; GI50 (HT29 colon): 1.24 µM; TGI (HT29 colon): > 100 µM; GI50 (MDA-MB-435): 1.49 µM; TGI (MDA-MB-435): 4.67 µM; GI50 (HS 578T breast): 3.91 µM; TGI (HS 578T breast): > 100 µM; GI50 (K-562 leukemia): 0.977 µM; TGI (K-562 leukemia): > 100 µM; GI50 (MOLT-4 leukemia): 3.32 µM; TGI (MOLT-4 leukemia): > 100 µM; GI50 (OVCAR-5 ovarian): 3.7 µM; TGI (OVCAR-5 ovarian): 25.7 µM; GI50 (SF-268 CNS): 3.09 µM; TGI (SF-268 CNS): > 100 µM; GI50 (SF-295 CNS): 2.91 µM; TGI (SF-295 CNS): > 100 µM; GI50 (NCI/ADR-RES ovarian): > 100 µM; TGI (NCI/ADR-RES ovarian): > 100 µM; GI50 (SF-539 CNS): 1.91 µM; TGI (SF-539 CNS): 4.39 µM; GI50 (SW-620 colon): 1.37 µM; TGI (SW-620 colon): 6.98 µM; GI50 (NCI-H226 lung): 2.39 µM; TGI (NCI-H226 lung): 6.63 µM; GI50 (KM12 colon): 1.57 µM; TGI (KM12 colon): 4.46 µM; GI50 (NCI-H23 lung): 2.97 µM; TGI (NCI-H23 lung): 22.3 µM; GI50 (SK-MEL-5 melanoma): 2.64 µM; TGI (SK-MEL-5 melanoma): 7.74 µM; GI50 (T-47D breast): 3.16 µM; TGI (T-47D breast): > 100 µM; GI50 (HL-60(TB) leukemia): 3.18 µM; TGI (HL-60(TB) leukemia): > 100 µM; GI50 (MALME-3M melanoma): 2.59 µM; TGI (MALME-3M melanoma): 8.41 µM; GI50 (OVCAR-8 ovarian): 4.03 µM; TGI (OVCAR-8 ovarian): > 100 µM; GI50 (SR leukemia): 0.434 µM; TGI (SR leukemia): > 100 µM; GI50 (EKVX NSCLC): 4.24 µM; TGI (EKVX NSCLC): > 100 µM; GI50 (COLO 205 colon): 5.09 µM; TGI (COLO 205 colon): > 100 µM; GI50 (OVCAR-4 ovarian): 3.94 µM; TGI (OVCAR-4 ovarian): 15.5 µM; GI50 (HOP-92 NSCLC): 11.7 µM; TGI (HOP-92 NSCLC): 38.3 µM; GI50 (MDA-MB-231 breast): 3.2 µM; TGI (MDA-MB-231 breast): > 100 µM; GI50 (SK-MEL-2 melanoma): 21.1 µM; TGI (SK-MEL-2 melanoma): > 100 µM; GI50 (HCT-15 colon): 2.25 µM; TGI (HCT-15 colon): > 100 µM; GI50 (SK-OV-3 ovarian): 7.09 µM; TGI (SK-OV-3 ovarian): > 100 µM; GI50 (TK-10 renal): 5.61 µM; TGI (TK-10 renal): > 100 µM; GI50 (U251 CNS): 1.48 µM; TGI (U251 CNS): > 100 µM; GI50 (NCI-H522 lung): 4.25 µM; TGI (NCI-H522 lung): > 100 µM; GI50 (A498 renal): 4.18 µM; TGI (A498 renal): 14.4 µM; GI50 (MCF7 breast): 0.396 µM; TGI (MCF7 breast): > 100 µM; GI50 (NCI-H460 lung): 2.4 µM; TGI (NCI-H460 lung): 6.66 µM; GI50 (PC-3 prostate): 2.54 µM; TGI (PC-3 prostate): 15.7 µM; GI50 (SNB-19 CNS): 4.52 µM; TGI (SNB-19 CNS): 66.7 µM; GI50 (CCRF-CEM leukemia): 2.63 µM; TGI (CCRF-CEM leukemia): > 100 µM; GI50 (DU-145 prostate): 3.67 µM; TGI (DU-145 prostate): 34.9 µM; GI50 (RPMI-8226 leukemia): 0.401 µM; TGI (RPMI-8226 leukemia): 4.46 µM; GI50 (SK-MEL-28 melanoma): 2.77 µM; TGI (SK-MEL-28 melanoma): 10.4 µM

**Q.** With `O=C1NC(=O)C(Cc2cccc(OCc3ccccc3)c2)C(=O)N1` as the compound, how does the GI50 (SR leukemia) read?
**A.** 4.07 µg/mL

**Q.** Which results are given for `C[N+](C)(C)C(CSSCC(C(=O)[O-])[N+](C)(C)C)C(=O)[O-]` (stereo not given)?
**A.** GI50 (SNB-75 CNS): 32.5 µM; GI50 (MDA-MB-435): 25.5 µM; TGI (MDA-MB-435): 71.2 µM; GI50 (HOP-92 NSCLC): 72.1 µM

**Q.** Which TGI (RXF 393 renal) does the source give for `COc1ccc(C(Cc2ccccc2)C2NC(=S)NC2=O)cc1` (stereo not given) here?
**A.** > 25 µM

**Q.** What about the TGI (HCT-116 colon) of the same compound?
**A.** > 25 µM

**Q.** And the TGI (CAKI-1 renal)?
**A.** > 25 µM

**Q.** What about the TGI (UO-31 renal) of the same compound?
**A.** > 25 µM

**Q.** And the TGI (ACHN renal)?
**A.** > 25 µM

**Q.** What about the TGI (UACC-257 melanoma) of the same compound?
**A.** > 25 µM

**Q.** And the TGI (SN12C renal)?
**A.** > 25 µM

**Q.** What about the TGI (OVCAR-3 ovarian) of the same compound?
**A.** > 25 µM

**Q.** And the TGI (A549 NSCLC)?
**A.** > 25 µM

**Q.** And the TGI (LOX IMVI melanoma)?
**A.** > 25 µM

**Q.** And the TGI (HOP-62 NSCLC)?
**A.** > 25 µM

**Q.** And the TGI (SNB-75 CNS)?
**A.** > 25 µM

**Q.** And the TGI (M14 melanoma)?
**A.** > 25 µM

**Q.** What about the TGI (HT29 colon) of the same compound?
**A.** > 25 µM

**Q.** What about the TGI (MDA-MB-435) of the same compound?
**A.** > 25 µM

**Q.** And the TGI (HS 578T breast)?
**A.** > 25 µM

**Q.** What about the TGI (K-562 leukemia) of the same compound?
**A.** > 25 µM

**Q.** And the TGI (MOLT-4 leukemia)?
**A.** > 25 µM

**Q.** What about the TGI (OVCAR-5 ovarian) of the same compound?
**A.** > 25 µM

**Q.** And the TGI (SF-268 CNS)?
**A.** > 25 µM

**Q.** And the TGI (SF-295 CNS)?
**A.** > 25 µM

**Q.** What about the TGI (NCI/ADR-RES ovarian) of the same compound?
**A.** > 25 µM

**Q.** What about the TGI (SF-539 CNS) of the same compound?
**A.** > 25 µM

**Q.** And the TGI (SW-620 colon)?
**A.** > 25 µM

**Q.** And the TGI (NCI-H226 lung)?
**A.** > 25 µM

**Q.** And the TGI (KM12 colon)?
**A.** > 25 µM

**Q.** And the TGI (NCI-H23 lung)?
**A.** > 25 µM

**Q.** What about the TGI (SK-MEL-5 melanoma) of the same compound?
**A.** > 25 µM

**Q.** What about the TGI (T-47D breast) of the same compound?
**A.** > 25 µM

**Q.** What about the TGI (IGROV1 ovarian) of the same compound?
**A.** > 25 µM

**Q.** And the TGI (HL-60(TB) leukemia)?
**A.** > 25 µM

**Q.** And the TGI (MALME-3M melanoma)?
**A.** > 25 µM

**Q.** What about the TGI (OVCAR-8 ovarian) of the same compound?
**A.** > 25 µM

**Q.** And the TGI (SR leukemia)?
**A.** > 25 µM

**Q.** What about the TGI (EKVX NSCLC) of the same compound?
**A.** > 25 µM

**Q.** What about the TGI (COLO 205 colon) of the same compound?
**A.** > 25 µM

**Q.** And the TGI (OVCAR-4 ovarian)?
**A.** > 25 µM

**Q.** And the TGI (HOP-92 NSCLC)?
**A.** > 25 µM

**Q.** And the TGI (MDA-MB-231 breast)?
**A.** > 25 µM

**Q.** And the TGI (SK-MEL-2 melanoma)?
**A.** > 25 µM

**Q.** And the TGI (HCT-15 colon)?
**A.** > 25 µM

**Q.** What about the TGI (SK-OV-3 ovarian) of the same compound?
**A.** > 25 µM

**Q.** What about the TGI (TK-10 renal) of the same compound?
**A.** > 25 µM

**Q.** And the TGI (U251 CNS)?
**A.** > 25 µM

**Q.** What about the TGI (786-0 renal) of the same compound?
**A.** > 25 µM

**Q.** And the TGI (NCI-H522 lung)?
**A.** > 25 µM

**Q.** And the TGI (A498 renal)?
**A.** > 25 µM

**Q.** And the TGI (MCF7 breast)?
**A.** > 25 µM

**Q.** What about the TGI (NCI-H460 lung) of the same compound?
**A.** > 25 µM

**Q.** What about the TGI (PC-3 prostate) of the same compound?
**A.** > 25 µM

**Q.** What about the TGI (SNB-19 CNS) of the same compound?
**A.** > 25 µM

**Q.** And the TGI (CCRF-CEM leukemia)?
**A.** > 25 µM

**Q.** And the TGI (DU-145 prostate)?
**A.** > 25 µM

**Q.** And the TGI (RPMI-8226 leukemia)?
**A.** > 25 µM

**Q.** What about the TGI (SK-MEL-28 melanoma) of the same compound?
**A.** > 25 µM
